According to PubChem BioAssay (NCI):
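Five compound concentrations were applied to cells in 96-well plates for 48 hours; endpoints were derived by simple linear interpolation of the resulting dose-response curve. GI50 is the concentration that inhibits growth by half. The concentration for full growth arrest is given as TGI.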

Experiments:
Test in all cases: inhibition of tumour cell growth, NCI panel, 48 h
[1] = test system: A498 renal
[2] = test system: SK-MEL-28 melanoma
[3] = test system: HL-60(TB) leukemia
[4] = test system: K-562 leukemia
[5] = test system: OVCAR-8 ovarian
[6] = test system: SNB-19 CNS
[7] = test system: HOP-92 NSCLC
[8] = test system: SK-OV-3 ovarian
[9] = test system: HCT-116 colon
[10] = test system: CAKI-1 renal
[11] = test system: OVCAR-3 ovarian
[12] = test system: SNB-75 CNS
[13] = test system: HCC-2998 colon
[14] = test system: NCI-H23 lung
[15] = test system: KM12 colon
[16] = test system: HCT-15 colon
[17] = test system: SF-539 CNS
[18] = test system: DU-145 prostate
[19] = test system: UACC-62 melanoma
[20] = test system: TK-10 renal
[21] = test system: MALME-3M melanoma
[22] = test system: SR leukemia
[23] = test system: UACC-257 melanoma
[24] = test system: SW-620 colon
[25] = test system: COLO 205 colon
[26] = test system: SK-MEL-5 melanoma
[27] = test system: T-47D breast
[28] = test system: SK-MEL-2 melanoma
[29] = test system: UO-31 renal
[30] = test system: PC-3 prostate
[31] = test system: MDA-MB-435
[32] = test system: NCI-H460 lung
[33] = test system: MDA-MB-231 breast
[34] = test system: ACHN renal
[35] = test system: BT-549 breast
[36] = test system: OVCAR-4 ovarian
[37] = test system: CCRF-CEM leukemia
[38] = test system: SN12C renal
[39] = test system: HT29 colon
[40] = test system: LOX IMVI melanoma
[41] = test system: NCI-H226 lung
[42] = test system: HS 578T breast
[43] = test system: A549 NSCLC
[44] = test system: OVCAR-5 ovarian
[45] = test system: MCF7 breast
[46] = test system: NCI/ADR-RES ovarian
[47] = test system: 786-0 renal
[48] = test system: EKVX NSCLC
[49] = test system: RPMI-8226 leukemia
[50] = test system: U251 CNS
[51] = test system: MOLT-4 leukemia
[52] = test system: SF-295 CNS
[53] = test system: SF-268 CNS
[54] = test system: HOP-62 NSCLC
[55] = test system: RXF 393 renal
[56] = test system: M14 melanoma
[57] = test system: NCI-H522 lung
[58] = test system: IGROV1 ovarian

Structure (SMILES): CCN1Cc2nc3sc(C)c(C)c3c(=O)n2C=C1C
- GI50 [1]: 20.3 µM
- TGI [1]: > 100 µM
- GI50 [2]: 6.65 µM
- TGI [2]: 21.3 µM
- GI50 [3]: 2.1 µM
- TGI [3]: 6.48 µM
- GI50 [4]: 3.35 µM
- TGI [4]: 17.8 µM
- GI50 [5]: 4.83 µM
- TGI [5]: 25.3 µM
- GI50 [6]: 17.9 µM
- TGI [6]: > 100 µM
- GI50 [7]: 6.2 µM
- TGI [7]: 46.4 µM
- GI50 [8]: 74.1 µM
- TGI [8]: > 100 µM
- GI50 [9]: 1.72 µM
- TGI [9]: 4.17 µM
- GI50 [10]: 11.2 µM
- TGI [10]: 53.5 µM
- GI50 [11]: 2.75 µM
- TGI [11]: 9.74 µM
- GI50 [12]: 10.2 µM
- TGI [12]: > 100 µM
- GI50 [13]: 5.19 µM
- TGI [13]: 37.8 µM
- GI50 [14]: 7.26 µM
- TGI [14]: > 100 µM
- GI50 [15]: 2.8 µM
- TGI [15]: 14.4 µM
- GI50 [16]: 3.5 µM
- TGI [16]: 19 µM
- GI50 [17]: 12.9 µM
- TGI [17]: 34.4 µM
- GI50 [18]: 7.7 µM
- TGI [18]: 23 µM
- GI50 [19]: 5.83 µM
- TGI [19]: 24.7 µM
- GI50 [20]: 15.1 µM
- TGI [20]: 83.4 µM
- GI50 [21]: 16.4 µM
- TGI [21]: 73.5 µM
- GI50 [22]: 1.58 µM
- TGI [22]: 8.49 µM
- GI50 [23]: 4.56 µM
- TGI [23]: 17.6 µM
- GI50 [24]: 2.75 µM
- TGI [24]: 12.6 µM
- GI50 [25]: 24.4 µM
- TGI [25]: > 100 µM
- GI50 [26]: 5.87 µM
- TGI [26]: 51.8 µM
- GI50 [27]: 4.17 µM
- TGI [27]: > 100 µM
- GI50 [28]: 21.1 µM
- TGI [28]: > 100 µM
- GI50 [29]: 5.29 µM
- TGI [29]: > 100 µM
- GI50 [30]: 4.07 µM
- TGI [30]: > 100 µM
- GI50 [31]: 6.48 µM
- TGI [31]: 39.1 µM
- GI50 [32]: 40.6 µM
- TGI [32]: > 100 µM
- GI50 [33]: 8.14 µM
- TGI [33]: 24.7 µM
- GI50 [34]: 11.5 µM
- TGI [34]: > 100 µM
- GI50 [35]: 7.36 µM
- TGI [35]: 92.1 µM
- GI50 [36]: 11.8 µM
- TGI [36]: > 100 µM
- GI50 [37]: 2.52 µM
- TGI [37]: 8.21 µM
- GI50 [38]: 13.8 µM
- TGI [38]: 62.1 µM
- GI50 [39]: 3.9 µM
- TGI [39]: 15.8 µM
- GI50 [40]: 4.64 µM
- TGI [40]: 17.1 µM
- GI50 [41]: 8.17 µM
- TGI [41]: 21.9 µM
- GI50 [42]: 1.66 µM
- TGI [42]: 6.92 µM
- GI50 [43]: 38.5 µM
- TGI [43]: > 100 µM
- GI50 [44]: 42.3 µM
- TGI [44]: > 100 µM
- GI50 [45]: 3.94 µM
- TGI [45]: 53.3 µM
- GI50 [46]: 5.12 µM
- TGI [46]: 79.6 µM
- GI50 [47]: 16.1 µM
- TGI [47]: 66.4 µM
- GI50 [48]: 21.8 µM
- TGI [48]: > 100 µM
- GI50 [49]: 2.64 µM
- TGI [49]: 10.9 µM
- GI50 [50]: 4.23 µM
- TGI [50]: > 100 µM
- GI50 [51]: 2.46 µM
- TGI [51]: 8.7 µM
- GI50 [52]: 20.2 µM
- TGI [52]: > 100 µM
- GI50 [53]: 5.41 µM
- TGI [53]: 36.2 µM
- GI50 [54]: 16.4 µM
- TGI [54]: 75.1 µM

Structure (SMILES): Clc1ccc(OCc2nnc3n2N=C(c2ccc(Cl)cc2Cl)CS3)cc1
- GI50 [2]: 20.6 µM
- TGI [2]: 44.6 µM
- GI50 [3]: 31.8 µM
- TGI [3]: > 100 µM
- GI50 [55]: 13.7 µM
- TGI [55]: 31.8 µM
- GI50 [4]: 32.5 µM
- TGI [4]: > 100 µM
- GI50 [5]: 25.4 µM
- TGI [5]: 52.7 µM
- GI50 [6]: 28.5 µM
- TGI [6]: > 100 µM
- GI50 [7]: 14.3 µM
- TGI [7]: 41.2 µM
- GI50 [8]: 42.8 µM
- TGI [8]: > 100 µM
- GI50 [56]: 16.4 µM
- TGI [56]: 36.3 µM
- GI50 [9]: 13.2 µM
- TGI [9]: 30.4 µM
- GI50 [10]: 25.9 µM
- TGI [10]: 79.7 µM
- GI50 [11]: 17.8 µM
- TGI [11]: 50.7 µM
- GI50 [12]: 16.3 µM
- TGI [12]: 43.2 µM
- GI50 [57]: 19.2 µM
- TGI [57]: 38.7 µM
- GI50 [13]: 16.6 µM
- TGI [13]: 35 µM
- GI50 [14]: 17.1 µM
- TGI [14]: 37.9 µM
- GI50 [15]: 20.9 µM
- TGI [15]: 54.4 µM
- GI50 [16]: 13.9 µM
- TGI [16]: 37.1 µM
- GI50 [17]: 17.4 µM
- TGI [17]: 34.6 µM
- GI50 [18]: 31.2 µM
- TGI [18]: > 100 µM
- GI50 [19]: 14 µM
- TGI [19]: 31.4 µM
- GI50 [20]: 15.9 µM
- TGI [20]: > 100 µM
- GI50 [21]: 19.8 µM
- TGI [21]: 58.6 µM
- GI50 [22]: 19.4 µM
- TGI [22]: 52.9 µM
- GI50 [23]: 25 µM
- TGI [23]: 50 µM
- GI50 [24]: 31.6 µM
- TGI [24]: > 100 µM
- GI50 [25]: 26.3 µM
- TGI [25]: 86.7 µM
- GI50 [58]: 19.8 µM
- TGI [58]: 50.8 µM
- GI50 [26]: 16.4 µM
- TGI [26]: 31.9 µM
- GI50 [27]: 38.5 µM
- TGI [27]: > 100 µM
- GI50 [28]: 22.1 µM
- TGI [28]: 45.8 µM
- GI50 [29]: 14.8 µM
- TGI [29]: 34.5 µM
- GI50 [30]: 27.6 µM
- TGI [30]: > 100 µM
- GI50 [31]: 22.4 µM
- TGI [31]: 59.8 µM
- GI50 [32]: 17.2 µM
- TGI [32]: 51 µM
- GI50 [33]: 14.4 µM
- TGI [33]: 33.2 µM
- GI50 [34]: 20.4 µM
- TGI [34]: 49.3 µM
- GI50 [35]: 22.8 µM
- TGI [35]: 46.2 µM
- GI50 [36]: 23.7 µM
- TGI [36]: 79 µM
- GI50 [37]: 21.1 µM
- TGI [37]: 68.1 µM
- GI50 [38]: 14.8 µM
- TGI [38]: 30.6 µM
- GI50 [39]: 16 µM
- TGI [39]: 51.8 µM
- GI50 [40]: 16.2 µM
- TGI [40]: 30.9 µM
- GI50 [41]: 17.3 µM
- TGI [41]: 38.9 µM
- GI50 [42]: 29.1 µM
- TGI [42]: 71 µM
- GI50 [43]: 32.6 µM
- TGI [43]: > 100 µM
- GI50 [44]: 22.1 µM
- TGI [44]: 81 µM
- GI50 [45]: 27.8 µM
- TGI [45]: 69.2 µM
- GI50 [46]: 16.2 µM
- TGI [46]: 37.9 µM
- GI50 [47]: 32.7 µM
- TGI [47]: > 100 µM
- GI50 [48]: 20.5 µM
- TGI [48]: 52.9 µM
- GI50 [49]: 21.1 µM
- TGI [49]: 68.5 µM
- GI50 [50]: 19.5 µM
- TGI [50]: 41.8 µM
- GI50 [51]: 32.4 µM
- TGI [51]: > 100 µM
- GI50 [52]: 13.7 µM
- TGI [52]: 44.2 µM
- GI50 [53]: 17.4 µM
- TGI [53]: 40.2 µM
- GI50 [54]: 19.6 µM
- TGI [54]: 41.3 µM
